Key:
[1] = test system: rat cardiac muscle fibers; test: Skinned fiber force, rat cardiac trabeculae; set-up: dose or concentration left out as unconfirmed; settings: rat cardiac trabecular strips
Method: Measurement of isometric force in skinned fibers from rabbit psoas, rat soleus, and rat cardiac trabeculae were performed as described previously ([65]) with an 802D fiber system (Aurora Scientific). Muscle bundles were thawed from –80°C and placed in relaxing solution. Single fibers were transferred to the testing apparatus with steel pins connected to a force transducer and motor (model 403A and 322C, Aurora Scientific), and collodion glue was applied. Temperature was set to 15°C for skeletal fibers and 30°C for rat cardiac trabeculae. The wells of the 802D were filled with different ratios of relaxing and activating pCa solutions as detailed previously ([65]). All control solutions contained 1% final DMSO. Traces were compared between control and compound runs to evaluate isometric force and calcium sensitivity.

mouse TA muscle = test: In situ TA force and lengthening injury; assay type: in vivo; settings: oral
Method: Measurement of isometric force and eccentric injury response in situ was performed in mouse TA muscle based on published protocols ([30]). Mice were anesthetized with 2% isoflurane (0.7%–1.5% maintenance) on a 37°C platform. The distal tendon to the TA and EDL muscle was attached with 4-0 suture a servomotor (Aurora Scientific). The sciatic nerve was exposed at the knee for hook electrodes. For compound assessment, baseline isometric contraction was assessed at 25–175 Hz (9 mA, 300 ms) followed by 100 Hz stimuli every 5 minutes. After 15 minutes, compound was dosed PO, and recording continued for 4 hours followed by a second force frequency. For in situ eccentric injury, compound was administered PO, muscle was stimulated every 5 minutes at 100 Hz for 3.5 hours, and then 2 lengthening contractions were performed (10 min apart, 100 ms at 150 Hz, then lengthening 0.2 L0 at 2 L0/s and hold for 100 ms). Isometric force before and 10 minutes after the injury contractions was recorded.

[2] = test system: mdx mouse gastrocnemius muscle; test: RNA-Seq analysis of gastrocnemius muscle; assay type: in vivo
Method: RNA-Seq was performed with isolated single nuclei using the 10X Genomics Chromium Single Cell 3’ Protocol, Accessories, and Kits (CG000183 Rev A). Data were then analyzed by Rosalind (https://rosalind.onramp.bio/), with a HyperScale architecture developed by OnRamp BioInformatics Inc. Data have been submitted to the Gene Expression Omnibus (GEO) database at the NIH (accession GSE227510).

healthy mice, TA muscle = test: Cardiotoxin sterile muscle injury repair; assay type: in vivo, mouse; settings: day 8 post injury
Method: For sterile muscle injury, mice were anesthetized with isoflurane and 50 μL cardiotoxin (12 × 10^–6 M, 217503, Millipore) injected in the TA muscle. Muscles 8 days after injury were snap frozen in nitrogen-chilled isopentane. 8 μm cryosections were cut and stained with H&E. For each analysis, more than 10 slides (per condition/group) containing 6 muscle sections/sample were used, and myofibers in the injured area were counted and measured with a Mirax digital scanner and HALO software ([68]). For adult mouse studies, muscles were fixed in 10% formalin and embedded in paraffin for sectioning. Laminin staining (RB-082, Thermo Fisher Scientific) was used to outline fibers, and picrosirius red was used for collagen accumulation. Image analysis was performed using ImarisX64 software (Bitplane AG), and fiber sizing was calculated using minimal Feret’s diameter ([69]). For after weaning juvenile mouse studies, cryosections from soleus muscles were mounted in ProLong antifade mountant with DAPI (Thermo Fisher Scientific). Fiber type, size, and central nucleation were quantified with analysis via SMASH ([70]) and ImageJ (NIH). Antibodies used were mouse anti-MHC2A (1:50, SC-71, Developmental Studies Hybridoma Bank) and mouse anti-eMHC (1:10, BF-45, Developmental Studies Hybridoma Bank).

ABL1-nonphosphorylated = molecular target: T1, ABL1-nonphosphorylated (Homo sapiens, UniProt P00519); test: KINOMEscan scanEDGE; assay type: binding; settings: 20 uM
T1 construct: purchased Eurofins DiscoverX (KINOMEscan; SAFETYscan E/IC50 ELECT)

CSNK1D = molecular target: T2, CSNK1D (Homo sapiens, UniProt P48730); test: KINOMEscan scanEDGE; assay type: binding; settings: 20 uM
T2 construct: purchased Eurofins DiscoverX (KINOMEscan; SAFETYscan E/IC50 ELECT)

MKNK2 = molecular target: T3, MKNK2 (Homo sapiens, UniProt Q9HBH9); test: KINOMEscan scanEDGE; assay type: binding; settings: 20 uM
T3 construct: purchased Eurofins DiscoverX (KINOMEscan; SAFETYscan E/IC50 ELECT)

[3] = molecular target: T4, RSK2(Kin.Dom.1-N-terminal) (Homo sapiens, UniProt P51812); test: KINOMEscan scanEDGE; assay type: binding; settings: 20 uM
T4 construct: RSK2(Kin.Dom.1-N-terminal); purchased Eurofins DiscoverX (KINOMEscan; SAFETYscan E/IC50 ELECT)

ULK2 = molecular target: T5, ULK2 (Homo sapiens, UniProt Q8IYT8); test: KINOMEscan scanEDGE; assay type: binding; settings: 20 uM
T5 construct: purchased Eurofins DiscoverX (KINOMEscan; SAFETYscan E/IC50 ELECT)

YANK3 = molecular target: T6, YANK3 (Homo sapiens, UniProt Q86UX6); test: KINOMEscan scanEDGE; assay type: binding; settings: 20 uM
T6 construct: purchased Eurofins DiscoverX (KINOMEscan; SAFETYscan E/IC50 ELECT)

GABAA = test: SAFETYscan Ion Channel; assay type: cell-based; settings: 10 uM
Method: The specificity of EDG-5506 for fast skeletal myosin over other, unrelated proteins was confirmed using two off-target binding and activity screens. […] A second off-target panel (SAFETYscan E/IC50 ELECT, Eurofins DiscoverX) tested in vitro enzyme activity against 78 proteins, including GPCR, ion channel, kinases, nuclear hormone receptors, and transporters. In all assays, the IC50 of EDG-5506 was more than 10 μM (Supplemental Data File 1).

[4] = mdx EDG-5506 3 mg/kg vs mdx Control

T2 sequence (P48730 whole entry): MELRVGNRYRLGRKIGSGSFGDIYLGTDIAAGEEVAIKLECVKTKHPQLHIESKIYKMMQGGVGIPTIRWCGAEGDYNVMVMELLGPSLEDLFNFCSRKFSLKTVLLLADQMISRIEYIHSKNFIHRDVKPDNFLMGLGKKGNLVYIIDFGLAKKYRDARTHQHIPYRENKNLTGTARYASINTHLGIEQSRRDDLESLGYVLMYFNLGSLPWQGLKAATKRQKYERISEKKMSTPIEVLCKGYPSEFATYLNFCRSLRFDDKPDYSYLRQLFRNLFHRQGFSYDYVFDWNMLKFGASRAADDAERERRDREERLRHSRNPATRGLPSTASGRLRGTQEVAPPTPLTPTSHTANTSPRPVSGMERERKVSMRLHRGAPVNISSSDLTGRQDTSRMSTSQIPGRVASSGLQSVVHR
T4 sequence (P51812 1-397 limits assumed): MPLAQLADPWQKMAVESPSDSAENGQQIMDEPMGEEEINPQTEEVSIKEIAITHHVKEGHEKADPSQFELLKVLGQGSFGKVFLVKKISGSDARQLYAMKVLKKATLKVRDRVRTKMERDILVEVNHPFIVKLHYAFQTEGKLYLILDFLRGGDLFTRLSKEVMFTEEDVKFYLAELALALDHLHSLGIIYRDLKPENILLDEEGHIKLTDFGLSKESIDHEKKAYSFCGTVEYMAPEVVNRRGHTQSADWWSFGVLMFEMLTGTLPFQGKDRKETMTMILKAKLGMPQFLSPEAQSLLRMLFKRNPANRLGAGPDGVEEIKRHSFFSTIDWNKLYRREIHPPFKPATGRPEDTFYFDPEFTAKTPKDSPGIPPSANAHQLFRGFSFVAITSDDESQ
T3 sequence (Q9HBH9 whole entry): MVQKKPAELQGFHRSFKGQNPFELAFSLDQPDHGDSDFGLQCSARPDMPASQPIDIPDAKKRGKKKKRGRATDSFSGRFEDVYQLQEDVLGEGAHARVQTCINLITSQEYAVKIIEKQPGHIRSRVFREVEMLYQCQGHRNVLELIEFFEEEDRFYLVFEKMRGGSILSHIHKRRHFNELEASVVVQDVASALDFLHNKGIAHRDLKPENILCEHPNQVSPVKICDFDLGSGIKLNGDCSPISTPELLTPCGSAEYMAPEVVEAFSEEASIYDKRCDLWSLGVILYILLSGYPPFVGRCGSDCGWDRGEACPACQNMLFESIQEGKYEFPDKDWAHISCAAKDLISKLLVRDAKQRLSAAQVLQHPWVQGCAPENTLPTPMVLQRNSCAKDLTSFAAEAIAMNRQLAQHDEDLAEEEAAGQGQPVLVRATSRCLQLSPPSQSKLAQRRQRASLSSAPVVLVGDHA
T5 sequence (Q8IYT8 whole entry): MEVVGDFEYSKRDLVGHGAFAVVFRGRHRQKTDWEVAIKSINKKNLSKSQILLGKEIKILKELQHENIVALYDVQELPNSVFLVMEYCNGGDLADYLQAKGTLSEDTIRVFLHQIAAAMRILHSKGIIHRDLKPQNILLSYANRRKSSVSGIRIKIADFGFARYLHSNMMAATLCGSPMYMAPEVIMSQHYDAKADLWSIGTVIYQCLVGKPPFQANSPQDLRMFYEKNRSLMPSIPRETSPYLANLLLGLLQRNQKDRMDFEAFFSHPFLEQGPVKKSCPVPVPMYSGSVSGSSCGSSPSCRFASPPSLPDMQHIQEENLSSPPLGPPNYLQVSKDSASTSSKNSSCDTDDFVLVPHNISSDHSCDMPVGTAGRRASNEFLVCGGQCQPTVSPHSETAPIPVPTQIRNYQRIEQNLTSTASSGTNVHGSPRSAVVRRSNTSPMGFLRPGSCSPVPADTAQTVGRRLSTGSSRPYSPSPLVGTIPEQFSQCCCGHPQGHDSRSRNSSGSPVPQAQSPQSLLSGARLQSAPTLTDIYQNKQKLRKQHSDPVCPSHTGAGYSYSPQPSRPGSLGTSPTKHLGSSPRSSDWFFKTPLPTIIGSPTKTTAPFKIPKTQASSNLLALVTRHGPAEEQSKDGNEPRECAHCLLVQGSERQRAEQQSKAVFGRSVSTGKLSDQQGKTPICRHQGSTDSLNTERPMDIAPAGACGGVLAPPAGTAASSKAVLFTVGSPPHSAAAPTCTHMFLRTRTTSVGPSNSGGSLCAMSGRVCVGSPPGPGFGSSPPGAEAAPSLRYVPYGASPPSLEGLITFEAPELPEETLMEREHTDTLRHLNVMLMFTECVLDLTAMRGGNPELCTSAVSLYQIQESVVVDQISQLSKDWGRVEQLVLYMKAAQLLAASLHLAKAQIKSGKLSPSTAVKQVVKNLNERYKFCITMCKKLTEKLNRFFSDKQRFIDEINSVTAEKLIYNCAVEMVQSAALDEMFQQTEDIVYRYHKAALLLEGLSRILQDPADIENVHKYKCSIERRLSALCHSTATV
T6 sequence (Q86UX6 whole entry): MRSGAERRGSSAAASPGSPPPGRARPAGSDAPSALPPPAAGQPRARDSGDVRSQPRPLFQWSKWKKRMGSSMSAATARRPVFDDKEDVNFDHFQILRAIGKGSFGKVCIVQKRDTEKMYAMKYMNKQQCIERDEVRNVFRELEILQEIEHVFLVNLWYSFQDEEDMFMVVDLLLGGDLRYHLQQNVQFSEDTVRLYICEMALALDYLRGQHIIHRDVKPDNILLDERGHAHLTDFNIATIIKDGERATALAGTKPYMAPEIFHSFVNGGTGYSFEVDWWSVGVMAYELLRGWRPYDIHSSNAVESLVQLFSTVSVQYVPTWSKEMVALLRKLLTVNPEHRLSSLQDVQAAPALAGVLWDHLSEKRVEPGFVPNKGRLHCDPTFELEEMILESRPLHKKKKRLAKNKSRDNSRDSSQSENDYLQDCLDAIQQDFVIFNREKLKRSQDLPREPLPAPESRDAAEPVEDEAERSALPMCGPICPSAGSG
T1 sequence (P00519 whole entry): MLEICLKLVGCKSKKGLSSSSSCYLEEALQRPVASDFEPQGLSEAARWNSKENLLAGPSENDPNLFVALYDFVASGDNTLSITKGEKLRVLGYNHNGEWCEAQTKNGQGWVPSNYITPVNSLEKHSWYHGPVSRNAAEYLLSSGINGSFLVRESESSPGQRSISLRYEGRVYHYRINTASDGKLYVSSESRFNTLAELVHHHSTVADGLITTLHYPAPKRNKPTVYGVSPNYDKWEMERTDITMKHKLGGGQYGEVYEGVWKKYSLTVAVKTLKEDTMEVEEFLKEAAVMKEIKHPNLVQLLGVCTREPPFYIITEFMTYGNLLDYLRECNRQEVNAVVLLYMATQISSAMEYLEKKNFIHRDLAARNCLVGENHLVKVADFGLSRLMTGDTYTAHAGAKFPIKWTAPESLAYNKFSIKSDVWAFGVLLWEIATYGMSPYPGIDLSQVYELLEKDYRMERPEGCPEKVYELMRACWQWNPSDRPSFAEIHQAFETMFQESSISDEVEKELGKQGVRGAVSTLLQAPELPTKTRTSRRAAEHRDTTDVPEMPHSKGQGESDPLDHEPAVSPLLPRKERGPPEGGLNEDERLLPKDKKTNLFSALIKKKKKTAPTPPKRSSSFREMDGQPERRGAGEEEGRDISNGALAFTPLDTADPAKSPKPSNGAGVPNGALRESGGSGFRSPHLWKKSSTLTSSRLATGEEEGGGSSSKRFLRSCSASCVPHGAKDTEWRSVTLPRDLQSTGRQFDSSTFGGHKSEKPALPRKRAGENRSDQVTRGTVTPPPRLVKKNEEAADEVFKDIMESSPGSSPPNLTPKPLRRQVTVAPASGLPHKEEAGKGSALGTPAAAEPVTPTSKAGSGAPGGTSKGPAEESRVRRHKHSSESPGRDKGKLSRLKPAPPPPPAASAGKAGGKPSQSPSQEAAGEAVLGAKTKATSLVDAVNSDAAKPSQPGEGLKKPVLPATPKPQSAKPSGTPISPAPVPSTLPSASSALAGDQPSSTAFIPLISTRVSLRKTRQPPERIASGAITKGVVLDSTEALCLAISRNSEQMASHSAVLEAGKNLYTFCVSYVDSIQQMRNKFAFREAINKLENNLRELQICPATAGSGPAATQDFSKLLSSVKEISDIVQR

O=c1ccc(-c2cnc(OCC(F)(F)F)nc2)nn1Cc1cncc(F)c1 [EDG-5506]
effect on force, cardiac muscle fibers [1]: no effect | decrease in isometric force at protective doses (mouse TA muscle; mdx TA in situ): < 10% | strength drop after in situ lengthening injury (mouse TA muscle; mdx TA muscle, 2 lengthening contractions): dramatically improved | log2FoldChange Chrng ([2]; mdx EDG-5506 3 mg/kg vs WT): 0.42 | log2FoldChange Igfn1 ([2]; mdx EDG-5506 3 mg/kg vs WT): 2.931 | log2FoldChange Katnal2 ([2]; mdx EDG-5506 3 mg/kg vs WT): 1.899 | log2FoldChange Myh8 ([2]; mdx EDG-5506 3 mg/kg vs WT): 0.5674 | log2FoldChange Myl4 ([2]; mdx EDG-5506 3 mg/kg vs WT): 1.684 | log2FoldChange Chrng [2, 4]: -0.2866 | log2FoldChange Igfn1 [2, 4]: -0.9018 | log2FoldChange Katnal2 [2, 4]: -0.9377 | log2FoldChange Myh8 [2, 4]: -0.538 | log2FoldChange Myl4 [2, 4]: -1.31 | skeletal muscle transcription profile ([2]; mdx mice, 8 weeks): returned the skeletal muscle transcription profile closer to that of WT mice | muscle repair after cardiotoxin injury (healthy mice, TA muscle): did not interfere with muscle repair | binding, % of control (ABL1-nonphosphorylated): 96 % of control | binding, % of control (CSNK1D): 94 % of control | binding, % of control (MKNK2): 92 % of control | binding, % of control [3]: 90 % of control | binding, % of control (ULK2): 82 % of control | binding, % of control (YANK3): 88 % of control | Max Response (%) (Agonist) (GABAA): 4.91% | Max Response (%) (Antagonist) (GABAA): 7.72%
